One assay deals with MLL1-WRAD2 complex (Homo sapiens (Human), UniProt P61964). The assay is described as follows: MLL1-WRAD2 enzyme assay (in vitro methyl transferase assay). In kind it is biochemical. The following applies: MLL1-WRAD2 assay; read-out: In vitro MLL1 activity (IC50). As to the method:
Reaction was initiated with 1 μM 3H-SAM and incubated for 1 hour at 30° C. Reaction mixture was transferred to P81 filter-paper and washed with PBS before detection.

For the next assay, the system named is MV4-11 cells. The assay is described as follows: Cell proliferation assay (ATPlite). The assay is classed as cell-based. As to conditions: Homo sapiens, MV4-11, 120 h; MV-411 cells, five days; read-out: In vitro whole cell potency in MV-411 cells, (IC50). As for the experimental part:
MV4-11 cells were seeded into a 96-well plate at 1,000 cells/well in 150 μl medium (Alpha-MEM containing 10% FBS, 100 μg/ml Normocin, and 50 μg/ml Gentamycin, Invitrogen). A HP D300 digital dispenser was used to dose cells with DMSO or test compounds across a 10-point range of concentrations (high dose of 10 μM), and cultures were grown in a humidified 5% CO2 incubator at 37° C. After five days, plates were removed from incubator and equilibrated to room temperature. An equal volume of ATPlite assay reagent was added to each well, and samples were processed according to manufacturer's instructions (Perkin Elmer). Luminescent signal was measured using an Envision plate reader equipped with a US-Luminescence detector.

The next assay concerns the target WDR5 protein (Homo sapiens (Human), UniProt P61964). The assay is described as follows: Surface Plasmon Resonance (SPR) assay. The following applies: SPR; for residence time: τ=1/koff, read-out: Residence Time (t, min). The assay is classed as binding.
[1] abbreviates: Table 1, read-out: WDR5 binding affinity (KD).
The mark [2] stands for this setting: Table 2, read-out: WDR5 binding affinity SPR (KD).

Where two headings read alike, the source gives them in different places.

This note sets out measurements from patent US11174250B2, “Substituted carboxamides as inhibitors of WDR5 protein-protein binding” (PROPELLON THERAPEUTICS INC., priority 2016, dated 2021).

By IC50 is commonly meant the point on the concentration scale where inhibition reaches its midpoint. Broadly, the Kd is the constant that tells how readily two partners part at equilibrium. Usually residence time stands for the mean lifetime of the complex, commonly the reciprocal of the off-rate. Consider `CN1CCN(c2ccc(-c3cc(CN4CCC(F)CC4)ccc3F)cc2NC(=O)c2c[nH]c(=O)cc2C(F)(F)F)CC1` [Example 73, N-(2′-fluoro-5′-((4-fluoropiperidin-1-yl)methyl)-4-(4-methylpiperazin-1-yl)-[1,1′-biphenyl]-3-yl)-6-oxo-4-(trifluoromethyl)-1,6-dihydropyridine-3-carboxamide], for which the half-maximal inhibitory concentration (IC50) is 592 nM at MLL1-WRAD2 complex and 502 nM with MV4-11 cells. In addition, the Kd on WDR5 protein (setting [1]) and at WDR5 protein (setting [2]) was 4.2 nM each time. Moreover, the residence time at WDR5 protein stood at 5.44 min.

For the compound `CN1CCN(c2ccc(-c3cc(CN4C5COCC4C5)ccc3F)cc2NC(=O)c2c[nH]c(=O)cc2C(F)(F)F)CC1` [Example 74, N-(5′-(3-oxa-6-azabicyclo[3.1.1]heptan-6-ylmethyl)-2′-fluoro-4-(4-methylpiperazin-1-yl)-[1,1′-biphenyl]-3-yl)-6-oxo-4-(trifluoromethyl)-1,6-dihydropyridine-3-carboxamide], the IC50 came to 1750 nM at MLL1-WRAD2 complex and 5430 nM with MV4-11 cells. Besides, the Kd at WDR5 protein (setting [1]) and on WDR5 protein (setting [2]) was 4.8 nM each time.

Consider `CN1CCN(c2ccc(-c3cc(CN4CC[C@@H](S(C)(=O)=O)C4)ccc3F)cc2NC(=O)c2c[nH]c(=O)cc2C(F)(F)F)CC1` [Example 75, (R)—N-(2′-fluoro-4-(4-methylpiperazin-1-yl)-5′-((3-(methylsulfonyl)pyrrolidin-1-yl)methyl)-[1,1′-biphenyl]-3-yl)-6-oxo-4-(trifluoromethyl)-1,6-dihydropyridine-3-carboxamide], for which the IC50 is 2090 nM at MLL1-WRAD2 complex and 1220 nM with MV4-11 cells. Also, the Kd on WDR5 protein (setting [1]) and at WDR5 protein (setting [2]) was 5.9 nM each time. The residence time on WDR5 protein is 5.13 min.

As to `CN1CCN(c2ccc(-c3cc(CN(C)[C@H]4CCOC4)ccc3F)cc2NC(=O)c2c[nH]c(=O)cc2C(F)(F)F)CC1` [Example 76, (S)—N-(2′-fluoro-5′-((methyl(tetrahydrofuran-3-yl)amino)methyl)-4-(4-methylpiperazin-1-yl)-[1,1′-biphenyl]-3-yl)-6-oxo-4-(trifluoromethyl)-1,6-dihydropyridine-3-carboxamide], the values for the IC50 on MLL1-WRAD2 complex and with MV4-11 cells were 1900 nM and 787 nM, respectively. In addition, the Kd on WDR5 protein (setting [1]) and on WDR5 protein (setting [2]) was 5.5 nM each time. In addition, on WDR5 protein, the residence time was determined as 3.81 min.

For `CN1CCN(c2ccc(-c3cc(CN4CCOC(C)(C)C4)ccc3F)cc2NC(=O)c2c[nH]c(=O)cc2C(F)(F)F)CC1` [Example 77, N-(5′-((2,2-dimethylmorpholino)methyl)-2′-fluoro-4-(4-methylpiperazin-1-yl)-[1,1′-biphenyl]-3-yl)-6-oxo-4-(trifluoromethyl)-1,6-dihydropyridine-3-carboxamide], the IC50 was 907 nM on MLL1-WRAD2 complex and 1280 nM in the assay on MV4-11 cells. For the same compound, the Kd on WDR5 protein (setting [1]) and at WDR5 protein (setting [2]) was 4.5 nM in each case. Besides, on WDR5 protein, the residence time was found to be 5.41 min.

`C[C@@H]1CN(c2ccc(-c3cc(C(=O)Nc4ccccc4)ccc3F)cc2NC(=O)c2c[nH]c(=O)cc2C(F)(F)F)C[C@H](C)N1C` [Example 80, N-(2′-fluoro-5′-(phenylcarbamoyl)-4-((3S,5R)-3,4,5-trimethylpiperazin-1-yl)-[1,1′-biphenyl]-3-yl)-6-oxo-4-(trifluoromethyl)-1,6-dihydropyridine-3-carboxamide]: the IC50 at MLL1-WRAD2 complex turned out to be 3990 nM; with MV4-11 cells, 2180 nM. Further, the equilibrium dissociation constant (Kd) at WDR5 protein (setting [1]) is 4 nM; on WDR5 protein (setting [2]), 14 nM. In addition, the residence time on WDR5 protein was determined as 2.18 min.

As for `CC1CN(c2ccc(-c3cc(C(=O)NC4CCCCC4)ccc3F)cc2NC(=O)c2c[nH]c(=O)cc2C(F)(F)F)CCN1C` (stereo not shown) [Example 81, N-(5′-(cyclohexylcarbamoyl)-4-(3,4-dimethylpiperazin-1-yl)-2′-fluoro-[1,1′-biphenyl]-3-yl)-6-oxo-4-(trifluoromethyl)-1,6-dihydropyridine-3-carboxamide], the IC50 was greater than 30000 nM at MLL1-WRAD2 complex and greater than 10000 nM in the assay on MV4-11 cells. Moreover, the Kd was 6.3 nM at WDR5 protein (setting [1]) and 17.5 nM on WDR5 protein (setting [2]). The residence time at WDR5 protein amounted to 0.78 min.
